Reference: ChEMBL document CHEMBL1146823 (Bioorg Med Chem Lett, 2004)

Key:
Carbonic anhydrase 4 = biological target: T1, Carbonic anhydrase 4 (Bos taurus, UniProt Q95323)
T1 sequence (Q95323 whole entry): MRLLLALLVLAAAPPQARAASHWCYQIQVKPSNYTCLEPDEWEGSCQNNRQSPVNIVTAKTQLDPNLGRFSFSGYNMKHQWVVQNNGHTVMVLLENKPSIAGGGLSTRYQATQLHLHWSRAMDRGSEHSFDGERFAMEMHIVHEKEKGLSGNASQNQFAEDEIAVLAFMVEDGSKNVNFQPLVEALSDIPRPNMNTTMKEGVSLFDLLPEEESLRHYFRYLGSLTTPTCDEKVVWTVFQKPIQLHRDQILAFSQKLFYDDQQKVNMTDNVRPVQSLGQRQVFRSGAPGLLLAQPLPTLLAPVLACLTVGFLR
Description: Inhibitory activity of compound against bovine carbonic anhydrase IV

Carbonic anhydrase 1 = Carbonic anhydrase 1 (Homo sapiens, UniProt P00915)
Chain of Carbonic anhydrase 1 (P00915 whole entry): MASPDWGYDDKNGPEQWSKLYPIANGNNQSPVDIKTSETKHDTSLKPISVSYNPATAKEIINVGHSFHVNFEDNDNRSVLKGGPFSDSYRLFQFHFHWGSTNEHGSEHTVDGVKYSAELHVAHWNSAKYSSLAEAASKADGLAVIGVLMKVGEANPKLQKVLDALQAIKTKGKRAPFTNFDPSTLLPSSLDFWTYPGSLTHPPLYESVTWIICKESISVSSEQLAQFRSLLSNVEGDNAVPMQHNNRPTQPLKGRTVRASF
Description: Inhibitory activity of compound against human carbonic anhydrase I

IC50 (Carbonic anhydrase 4) [nM]	Structure (SMILES)	IC50 (Carbonic anhydrase 1) [nM]
65	NS(=O)(=O)c1ccc(S(=O)(=O)Nc2cccc3c(Cl)c[nH]c23)cc1	
	C[C@]12CC[C@@H]3c4ccc(OS(N)(=O)=O)cc4CCC3[C@@H]1CCC2=O (single isomer, unassigned) [EMATE]	37
290	Cc1ccc(-c2cc(C(F)(F)F)nn2-c2ccc(S(N)(=O)=O)cc2)cc1 [CELECOXIB]	
380	NS(=O)(=O)c1cc(Cl)c(Cl)c(S(N)(=O)=O)c1 [DICHLORPHENAMIDE]	
620	CCN1CCCC1CNC(=O)c1cc(S(N)(=O)=O)ccc1OC (configuration not stated) [SULPIRIDE]	
54	CC1(C)O[C@@H]2[C@@H](CO[C@@]3(COS(N)(=O)=O)OC(C)(C)O[C@@H]23)O1 [TOPIRAMATE]	
